Experimental data as given in patent US9321809B2, “Macrocyclic compounds for suppressing replication of hepatitis C virus” (Ginkgo Pharma Co., Ltd., priority 2012, dated 2016).
Where two headings read alike, the source gives them in different places.

Columns and labels:
[1] = liver microsome metabolity assay (PK Assays); type: in vitro ADME, human; conditions: pH 7.4
Method: The following liver microsome metabolity assays validated the PK properties of compounds of Formula (I). 1. Buffer A: 1.0 L 0.1 M potassium phosphate monobasic buffer (including 1.0 mM EDTA); Buffer B: 1.0 L 0.1 M dipotassium phosphate buffer (including 1.0 mM EDTA); Buffer C: 0.1 M potassium phosphate buffer (including 1.0 mM EDTA), pH 7.4, add Buffer A to 700 ml of Buffer B until pH is 7.4. 2. Drug solution: 500 μM solution: a 10 μL (10 mM) DMSO was added to 190 μL ACN; 1.5 μM solution (dissolved in human microsome and the final concentration of microsome is 0.75 mg/mL): 1.5 μL (500 μM) of drug solution and 18.75 μL of human microsome (20 mg/mL) were added to 479.75 uL of Buffer C. 3. NADPH solution (6 mM, dissolved in Buffer C). 4. 30 µL of drug solution (1.5 μM) was added to a 96-well plate, setting locations for different time points; Preincubated for 10 minutes at 37° C. 5. […] of NADPH (6 mM) was added to the location for 45-min time point; and timing started. 6. At 30, 15 and 5 min, […] of NADPH (6 mM) was added to each corresponding locations, respectively. 7. After the reaction was completed mins), 135 μL acetonitrile was added to the locations for all different time points; 15 µL of NADPH (6 mM) was added to the location for 0 min time point. 8. Centrifugated at 3220 g for 10 min. 9. 50 μL of supernatant was collected and mixed with 50 μL, of ultrapure water. Samples were sent to LC/MS for analysis.

[2] = tested on: HCV replicon-containing huh-7 cells (replicon 1b); experiment: HCV Replicon Assay (luciferase readout); type: cell-based; conditions: Hepatitis C virus; HCV replicon 1b in huh-7 cells, 48 h incubation, 1% DMSO, luciferase signal; read-out: EC50 (EC 50 on replicon 1b)
Method: Compounds of formuala (I) are tested for the ability to inhibit viral replication of the Hepatitis C viruses by the following in vitro assays.
DMEM (Life Technologies #41965-039) was supplemented with 10% FBS, 2 mM L-glutamine (Life Technologies #25030-024), penicillin (100 units/ml)/streptomycin (100 micrograms/ml) (Life Technologies #15140-114), 1× non-essential amino acids (Life Technologies #11140-035).
Complete media was prepared by mixing FBS, DMEM media with Geneticin (G418). The compete media was preincubated at 37° C. in a CO2 incubator. Then, HCV replicon-containing huh-7 cells (V. Lohmann et. al. Science, 285, (1999)110-113) was taken out from 37° C. incubator. The residual medium was absorbed, and the cells were washed with PBS. After washing fluid was removed, 1 ml 0.25% trypsin/0.02% EDTA solution. The cells were washed by the above trypsin/EDTA solution to make sure that each cell was cleaned. After the trypsin/EDTA solution was absorbed, the mixture was incubated at 37° C. in a CO2 incubator for 3-5 minutes. Morphological changes were observed by inverted microscope, till the cells were detached from the wall of container completely.
3 ml of complete media was added to make the cells to suspend. The cells are counted with hematometer. Appropriate volumes of the complete media was added to adjust the cell density to 100,000/ml. Cells were plated with 100 μl of suspension at 10,000/well of 96 well plate. Plates were placed into 37° C. 5% CO2 incubator for 24 h.
Preparation of Drug Solution:
Drugs were diluted under aseptic conditions.
Stock solutions may be prepared before the assay, which means that the test compounds are dissolved in 100% DMSO to afford a final concentration of 2 mM. Before the 96 well culture was completed, the stock solution was diluted with culter media to 100 fold of the final concentration (100× solution).
96-well plates were taken out from 37° C. CO2 incubator and morphological changes were observed by inverted microscope. In a ventilator, 1 μl of 100× drug solution was added to wells of 96 well plate until the final concentration of DMSO in the mixture is 1%. The plates were incubated at 37° C. in a CO2 environment for 48 h. 30 μl of Stead-G1® Luciferase Assay System (bought from Promega) was added to each well of 96 well plates and each plate is shaken in a plate shaker for 5 minutes to ensure cells cleavaged completely. The fluorescence signal was quantitated in a Perkin-Elmer plate reader (Envision) and integral time was setted to be 2 second. The following data were achieved after recording and analyzing the data.

| Compound | half-life at 1 µM ([1]; human liver microsomes, human microsome 0.75 mg/mL, 1.5 μM drug solution, NADPH, 37° C., time points 0-45 min, LC/MS, read-out: t1/2) [h] | EC50 [2] [nM] | half-life at 1 µM ([1]; human, microsomes) [h] |
| --- | --- | --- | --- |
| CC[C@@H]1C[C@]1(NC(=O)[C@@H]1C[C@@H]2CN1C(=O)[C@H](C(C)(C)C)NC(=O)OCC(C)(C)CCCCc1cccc3c1CN(C3)C(=O)O2)C(=O)NS(=O)(=O)C1CC1 [MK7009, reference compound] | 0.433 | < 10 |  |
| C=C[C@@H]1C[C@]1(NC(=O)[C@@H]1C[C@@H]2CN1C(=O)[C@H](C1CCCCC1)NC(=O)[C@@H](NC(=O)OC(C)(C)C)COC/C=C/c1cc3c(nccc3cc1OC)O2)C(=O)NS(=O)(=O)C1CC1 [Compound IIb-3, tert-butyl N-[(3R,5S,8S,11S,15E)-8-cyclohexyl-5-{[(1R,2S)-1-[(cyclopropanesulfonyl)carbamoyl]-2-ethenylcyclopropyl]carbamoyl}-18-methoxy-7,10-dioxo-2,13-dioxa-6,9,23-triazatetracyclo[15.6.2.1^3,6.0^20,24]hexacosa-1(23),15,17(25),18,20(24),21-hexaen-11-yl]carbamate] |  | < 10 | 3.83 |
| C=C[C@@H]1C[C@]1(NC(=O)[C@@H]1C[C@@H]2CN1C(=O)[C@H](C(C)(C)C)NC(=O)[C@@H](NC(=O)OC(C)(C)C)COC/C=C/c1cccc3c1CN(C3)C(=O)O2)C(=O)NS(=O)(=O)C1CC1 [Compound IIa-1, tert-butyl N-[(1R,12E,17S,20S,23S)-20-tert-butyl-23-{[(1R,2S)-1-[(cyclopropanesulfonyl)carbamoyl]-2-ethenylcyclopropyl]carbamoyl}-3,18,21-trioxo-2,15-dioxa-4,19,22-triazatetracyclo[20.2.1.1^4,7.0^6,11]hexacosa-6,8,10,12-tetraen-17-yl]carbamate] |  | < 10 | 3.3 |
| C=C[C@@H]1C[C@]1(NC(=O)[C@@H]1C[C@@H]2CN1C(=O)[C@H](C1CCCCC1)NC(=O)[C@@H](NC(=O)OC(C)(C)C)COC/C=C/c1cccc3c1CN(C3)C(=O)O2)C(=O)NS(=O)(=O)C1CC1 [Compound IIa-16, tert-butyl N-[(1R,12E,17S,20S,23S)-20-cyclohexyl-23-{[(1R,2S)-1-[(cyclopropanesulfonyl)carbamoyl]-2-ethenylcyclopropyl]carbamoyl}-3,18,21-trioxo-2,15-dioxa-4,19,22-triazatetracyclo[20.2.1.1^4,7.0^6,11]hexacosa-6,8,10,12-tetraen-17-yl]carbamate] |  | < 10 | 3.22 |
| C=C[C@@H]1C[C@]1(NC(=O)[C@@H]1C[C@@H]2CN1C(=O)[C@H](C1CCCCC1)NC(=O)[C@@H](NC(=O)OC(C)(C)C)COC/C=C/c1cc3c(nccc3cc1OC)O2)C(=O)O [Compound IIb-7, tert-butyl N-[(3R,5S,8S,11S,15E)-8-cyclohexyl-5-{[(1R,2S)-1-hydroxycarbonyl-2-ethenylcyclopropyl]carbamoyl}-18-methoxy-7,10-dioxo-2,13-dioxa-6,9,23-triazatetracyclo[15.6.2.13,6.020,24]hexacosa-1(23),15,17(25),18,20(24),21-hexaen-11-yl]carbamate] |  | 500 to 20000 |  |
